Reference: patent publication US12558369B2, “Compositions and methods of treating Fanconi Anemia” (Dana-Farber Cancer Institute, Inc., priority 2015, dated 2026)
Entries after “also recorded” stand apart in the source; their conditions may differ.

Tests used:
GM6914 = experiment: MMC cell viability (CellTiterGlo) to identify IC90; format: cell-based, human; conditions: GM6914, MMC for 7 days
Procedure: FIG. 7. Identification of IC90 concentration of MMC on GM6914 and validation of genome wide RNAi screening for MMC resistance. • A) Identification of IC90 concentration of MMC on GM6914. Cells were treated with different doses of MMC for 7 days, and cell viability was measured using CellTiterGlo reagent. […] Cells were transduced with 6 pools of shRNA retrovirus libraries, and selected with puromycin for 48 h. Cells were then treated with MMC for 7 days, and resistant cells were harvested to re-assess their MMC sensitivity by treated with MMC for 3 days. Data shown represented cells transduced by pool #3, 5 and 6. • C) FANCA deficient fibroblast cells (GM6914) were evaluated for MMC sensitivity after shRNA mediated knockdown of SMAD3 and TP53. Survival was measured after 3 days exposure to indicated concentrations of MMC. […] Error bars represent s.e.m. • D) FANCD2 deficient fibroblast cells (PD20) were evaluated for MMC sensitivity after RNAi mediated knockdown of SMAD3 and TP53. Survival was measured after 3 days exposure to indicated concentrations of MMC. […]
(§1) For survival assays, cells were seeded at a density of 1×10^3 cells per well in 96-well plates. After 3-6 days of culture in indicated concentrations of MMC or post exposure of acetaldehyde, viability was assessed using CellTiterGlo reagent (Promega). […] Colonies were counted after crystal violet staining.

[1] = tested on: EUFA316 (FA-G fibroblasts); experiment: MMC sensitivity survival assay of FA cells with TGFβ pathway inhibitors; format: cell-based, human
Procedure: (§2) FIG. 1. TGFβ pathway disruption enhances FA cellular growth. • A) RIGER P value analysis to identify top candidate genes. • B) Clonogenic survival of GM6914 (FA-A fibroblasts) and FANCA-corrected GM6914 cells after shRNA mediated knockdown of SMAD3. Cells were treated with increasing doses of MMC and plated for 10-12 days. The average of two experiments is presented; error bars represent s.e.m.
(§3) For survival assays, cells were seeded at a density of 1×10^3 cells per well in 96-well plates. After 72 hours of culture in indicated concentrations of MMC or post exposure of acetaldehyde, viability was assessed using CellTiterGlo reagent (Promega). In order to assess clonogenicity, cells were seeded at a low density (500-1000 cells per well) in 6-well plates and allowed to form colonies. The cells were then fixed in methanol/20% acetic acid and stained with 1% crystal violet. Colony formation was assessed by solubilizing crystal violet stain with methanol and quantifying UV absorbance for each condition.
For survival assays, cells were seeded at a density of 1×10^3 cells per well in 96-well plates. After 3-6 days of culture in indicated concentrations of MMC or post exposure of acetaldehyde, viability was assessed using CellTiterGlo reagent (Promega). In order to assess clonogenicity, cells were seeded at a low density (500-1000 cells per well) in 6-well plates and allowed to form colonies. The cells were then fixed in methanol/20% acetic acid and stained with 1% crystal violet. Colonies were counted after crystal violet staining.

EUFA316 = experiment: Acetaldehyde sensitivity survival assay; format: cell-based, human; conditions: EUFA316 cells
Procedure: as §2, §3, §1

U2OS cells [2] = experiment: NHEJ reporter assay; format: cell-based, human; conditions: template reporter assay
U2OS cells [3] = experiment: Immunoblot of DNA-PK phosphorylation; format: cell-based, human
mouse fibroblast cells = experiment: Immunoblot of Smad2 phosphorylation; format: cell-based; conditions: immunoblot of lysates
[4] = tested on: Lin− cells from WT and Fancd2−/− mice; experiment: Bone marrow Lin− cell growth under TGF-β1; format: cell-based, mouse; conditions: TGF-β1 1 ng/mL; Ab 10 μg/mL or SD208 10 μM; 5 days
Procedure: (§4) (A) Expression of phospho-Smad2/3 proteins in HSPCs from WT and Fancd2−/− mice as detected by flow cytometric analysis. (B) Quantification of mean fluorescence intensity (MFI) of phospho-Smad2/3 staining by flow cytometric analysis shown in (A) in HSPCs from WT and Fancd2−/− mice. (C) Fancd2−/− HSPCs are more sensitive to TGF-β1 than WT HSPCs. Sorted Lin− cells from WT or Fancd2−/− mice were exposed to TGF-β1. After 5 days in culture, LSK cells were analyzed by flow cytometry and quantified. Data are shown after normalizing to untreated WT group. […] Sorted Lin− cells from WT and Fancd2−/− mice were exposed to TGF-β1 (1 ng/mL) with or without TGF-beta 1,2,3 Ab (10 μg/mL) or SD208 (10 μM), and viable cells were counted after 5 days in culture. Data shown are after normalizing to untreated WT group. Error bars represent mean±s.e.m. (F) Clonogenic assay of WT and Fancd2−/− HSPCs treated with TGF-β1, TGF-beta 1, 2, 3 Ab or SD208. […] Hematopoietic colonies were counted after 7-10 days in culture. […] (I) Representative FACS plots of LSK cells analyzed by flow cytometry for GFP expression after 5 days in vitro culture in stem cell culture medium. […] Luciferase activity was measured. (L) Binding of FANCD2 to SMAD1 promoter (region −2108 to −1950 bp) upon DNA damage as detected by ChIP assay using anti-FANCD2 antibody in corrected GM6914 (+FANCA) but not GM6914 (+Vector) fibroblast cells. […]

Fancd2−/− HSPCs = experiment: Clonogenic assay of HSPCs in methylcellulose; format: cell-based, mouse; conditions: TGF-β1 1 ng/mL, Ab 10 μg/mL or SD208 10 μM; colonies after 7-10 days
Procedure: as §4

[5] = tested on: GM6914 cells (FA-A cells); experiment: Traffic light reporter (TLR) assay of HR and NHEJ; format: cell-based, human; conditions: GM6914, 10 μM SD208, 72 hrs
Excerpt: FIG. 17. TGF-β pathway Inhibition Increases HR and Decreases NHEJ activities in FA Cells. • (A, B) TGF-β pathway inhibition affects the choice of HR versus NHEJ pathways in repairing individual DNA breakpoints in FA cells. GM6914 cells (FA-A cells) or FANCA corrected GM6914 cells with shControl or shSMAD3 were used to generate traffic light reporter system, and then were infected with GFP-donor template and I-SceI lentivirus to generate DNA breakpoints. Quantification analysis of HR and NHEJ repair events is shown. (B) The ratio of HR to NHEJ activity based on the data in (A). […] Quantification of HR and NHEJ repair events in GM6914 cells exposed to SD-208 for 72 hrs as detected by traffic light reporter assay described in (A). […] HR assay was measured in U2OS cells with DR-GFP reporter after transduction with lentivirus encoding indicated shRNAs. The representative of three independent experiments is presented. […] (F, G) TGF-β pathway inhibition promotes HR activity in FA cells. Representative images (F) and quantification (G) of RAD51 foci in MMC treated GM6914 (FA-A) cells or FANCA corrected GM6914 cells with shRNA-mediated knockdown of SMAD3. […] One hundred cells were scored for RAD51 foci. […]
the presence of 8 μg/mL polybrene. […] Genome engineering events were analyzed by flow cytometry at 72 hours after transduction. NHEJ is represented by mCherry fluorescence, and HR by GFP fluorescence.

Row | Compound | IC90 (GM6914) [nM] | FA cells survival in the presence of MMC ([1]; FA cell lines with inhibitor) | cytotoxicity of corrected FA cells ([1]; corrected FA cells) | survival in the presence of acetaldehyde (EUFA316) | NHEJ activity (U2OS cells [2]) | phosphorylation of DNA-PK (U2OS cells [3]) | phosphorylation of Smad2 (mouse fibroblast cells) | inhibitory effect of TGF-β1 on bone marrow Lin− cell growth [4] | clonogenic ability of Fancd2−/− HSPCs (Fancd2−/− HSPCs) | HR activity / HR events [5] | NHEJ events [5]
1 | CO[C@@]12[C@H](COC(N)=O)C3=C(C(=O)C(C)=C(N)C3=O)N1C[C@@H]1N[C@@H]12 [MMC, mitomycin C] | 19 | – | – | – | – | – | – | – | – | – | –
2 | Fc1ccc(Cl)cc1-c1nc(Nc2ccncc2)c2nccnc2n1 [SD208] | – | improved FA cells survival in the presence of MMC | do not significantly alter cytotoxicity of corrected FA cells | significantly promoted survival | decreased NHEJ | blocks phosphorylation of DNA-PK | reduced phosphorylation of Smad2 | rescues inhibitory effect of TGF-β1 | markedly enhanced the clonogenic ability | increased HR activity; also recorded: increases HR events | decreases NHEJ events
